Assay results reported in patent publication EP1234575A1, “Furan fatty acids for improving the efficiency of cytostatic and/or radiation therapy” (Deigner, Hans-Peter, Dr., priority 2001, dated 2002).

What was measured:
[1] = tested on: Nierenkarzinomzelllinie (RENCA); assay: Apoptosis in RENCA renal carcinoma cells: FFS alone or 2 h FFS pre-incubation followed by a cytostatic (YO-PRO-1 positive cells, DNA laddering); assay type: cell-based; details: for Zahl apoptotischer Zellen bei 50 nM relativ zu 100 nM: 50 nM FFS versus 100 nM FFS, plus Daunorubicin; for Zahl apoptotischer Zellen bei 50 nM relativ zu 100 nM / höhere Anzahl apoptotischer Zellen im Vergleich zur Kontrolle mit Daunorubicin alleine / Konzentrationsabhängigkeit des prozentualen Anteils apoptotischer Zellen: Renca-Zellen; for höhere Anzahl apoptotischer Zellen im Vergleich zur Kontrolle mit Daunorubicin alleine: 1000 nM FFS plus Daunorubicin (1 µM per Figur 3); for Konzentrationsabhängigkeit des prozentualen Anteils apoptotischer Zellen: FFS 0 to 1000 nM plus Daunorubicin
Source text: (§1) Untersuchungen der pro- bzw. antiapoptotischen Wirkung der FFS wurden an einer Nierenkarzinomzelllinie (RENCA; Murphy et al., J. Natl. Cancer Inst. 50: 1013, 1973) durchgeführt. Dazu wurden die Zellen 22 Stunden zum einen mit einem Zytostatikum, zum anderen mit der entsprechenden FFS sowie einer Kontrolle und einer Kombination aus FFS und Zytostatikum inkubiert. Für die Substanzkombination aus FFS und Zytostatikum wurden die Zellen zwei Stunden mit der jeweiligen FFS vorinkubiert, anschließend das Zytostatikum zugegeben und danach für 24 Stunden im Brutschrank inkubiert. Die verwendeten Konzentrationen sind in Figur 3 angegeben. Diese Untersuchungen wurden mit den Verbindungen 11a/11b, 12b, 6b, 13b und 14 sowie jeweils für jedes Zytostatikum getrennt durchgeführt. Es zeigte sich bei keiner der getesteten FFS (alleinige Zugabe) eine signifikante Zunahme der Zahl apoptotischer Zellen gegenüber der Kontrolle. Bei Inkubation der Zellen mit einer FFS und anschließender Zytostatikumgabe konnten unterschiedliche Effekte beobachtet werden .
Bei den alkin-substituierten FFS wurde bei Verwendung von Daunorubicin in Kombination mit 11a eine Zunahme von 60% und in Kombination mit 11b eine Abnahme der Anzahl apoptotischer Zellen gemessen. Bei Verwendung von Vinblastin als Zytostatikum nahm bei beiden FFS 11a und 11b die Zahl apoptotischer Zellen von 60% bzw. 160% zu.
(§2) Da die FFS 11a und 11b als einzige aller synthetisierten FFS eine signifikante Zunahme an apoptotischen Zellen bei Inkubation in Kombination mit einem Zytostatikum zeigten, wurde untersucht, ob dieser Effekt von der Konzentration der FFS abhängt. Daher wurde das oben beschriebene Experiment an Renca-Zellen unter den gleichen Bedingungen, aber mit jeweils verschiedenen Konzentrationen von 11a bzw. 11b im Bereich von 0 bis 1000 nM durchgeführt (Figur 3). […] Der prozentuale Anteil apoptotischer Zellen nahm mit steigender FFS Konzentration zu und mit fallender ab. Bei Inkubation mit einer 1000 nM-Lösung wurde eine 6.1 bzw. 5.2-fach höhere Anzahl apoptotischer Zellen im Vergleich zur Kontrolle mit Daunorubicin alleine festgestellt. […] Bei Inkubation der Zellen mit FFS ohne Zytostatikum wurden auch bei hoher FFS Konzentration keine signifikante Zu- bzw. Abnahme der Apoptoserate festgestellt. Die Apoptoserate wurde routinemäßig durch Messung YO-PRO-1 positiver Zellen^5,6 DNA-Leiter-Untersuchungen ("DNA-laddering") ermittelt.

[2] = tested on: Morris-Hepatom; assay: Apoptosis in Morris hepatoma cells: FFS alone or FFS pre-incubation followed by a cytostatic; assay type: cell-based, Ratte
Source text: as §1
Aufgrund dieser Effekte wurde mit den alkin-substituierten FFS 11a und 11b an einer weiteren Karzinomzelllinie (Morris-Hepatom; Tumorbank DKFZ Heidelberg, TZB No. 620143, MH TC 5123, histologischer Typ: Hepatom, Herkunft/Spezies: Ratte, Buffalo) die oben beschriebenen Untersuchungen durchgeführt. Die Konzentrationen der verwendeten FFS bzw. Zytostatika sind in Figur 4 angegeben. FFS alleine zeigten auch hier keine Effekte. Bei einer Kombination aus Daunorubicin mit der FFS 11a bzw. 11b stieg die Zahl apoptotischer Zellen um 130% bzw. 60% und bei einer Kombination FFS 11a bzw. 11b mit Vinblastin um 85% bzw. 50% .
as §2

[3] = 2 h FFS pre-incubation, then Daunorubicin, 24 h, RENCA
[4] = 2 h FFS pre-incubation, then Vinblastin, 24 h, RENCA

SMILES | Anzahl apoptotischer Zellen (change, in words) [1, 3] | Anzahl apoptotischer Zellen (change, in words) [1, 4] | Zahl apoptotischer Zellen bei 50 nM relativ zu 100 nM [1] | höhere Anzahl apoptotischer Zellen im Vergleich zur Kontrolle mit Daunorubicin alleine [1] | Zunahme der Zahl apoptotischer Zellen [1, 4] | Konzentrationsabhängigkeit des prozentualen Anteils apoptotischer Zellen [1] | Anstieg der Zahl apoptotischer Zellen ([2]; FFS combined with Daunorubicin) | Anstieg der Zahl apoptotischer Zellen ([2]; FFS combined with Vinblastin) | Zunahme der Anzahl apoptotischer Zellen [1, 3]
CCC(=O)/C=C/c1ccc(CCCCCCCCCCC(=O)OC)o1 [6b, 11-[5(3-Oxo-pentenyl)-furan-2-yl]-undecansäure-methylester] | leichter Rückgang | leichter Rückgang | – | – | – | – | – | – | –
CCC(=O)/C=C/c1ccc(C#CCCCCCCCCC(=O)OC)o1 [11b, 11-[5-(3-Oxo-1-pentenyl)-furan-2-yl]-10-undecinsäure-methylester] | Abnahme | – | ca. halb so groß | 5.2 fach | 160% | deutliche Konzentrationsabhängigkeit | 60% | 50% | –
COC(=O)CCCCCCCCC#Cc1ccc(/C=C/C(C)=O)o1 [11a, 11-[5-(3-Oxo-1-butenyl)-furan-2-yl]-10-undecinsäuremethylester] | – | – | ca. halb so groß | 6.1 fach | 60% | deutliche Konzentrationsabhängigkeit | 130% | 85% | 60%
CCC(=O)/C=C/c1ccc(/C=C\CCCCCCCCC(=O)OC)o1 [12b] | leichter Rückgang | leichter Rückgang | – | – | – | – | – | – | –
CCC(=O)CCc1ccc(CCCCCCCCCCC(=O)OC)o1 [13b, 11-[5(3-Oxo-pentyl)-furan-2-yl]-undecansäure-methylester] | leichter Rückgang | leichter Rückgang | – | – | – | – | – | – | –
